2 compounds from ChEMBL document CHEMBL4184281, “Pharmacology and in vivo efficacy of pyridine-pyrimidine amides that inhibit microtubule polymerization” (Bioorg Med Chem Lett, 2018) can be followed below.

Molecules are shown by their SMILES. Active and inactive are the calls of the source. No cut-off for these calls is given here. Where only a bound is given, the exact number is not on record here.

Series [1] concerns MDA-MB-436. The series is described as follows: Antiproliferative activity against human MDA-MB-436 cells up to 1000 nM after 72 hrs by ATPlite assay. It counts as functional, cell-based.
Series [2] has as its system MDA-MB-436. Briefly: Antiproliferative activity against paclitaxel-resistant human MDA-MB-436 cells 20B clone up to 1000 nM after 72 hrs by ATPlite assay. It counts as functional, cell-based. For orientation: In ATP-based viability assays light output follows the ATP content of the culture.
The subject of series [3] is BT-549. Briefly: Antiproliferative activity against paclitaxel-resistant human BT549 cells 10A clone up to 1000 nM after 72 hrs by ATPlite assay. Type of series: functional, cell-based.
The test system of series [4] is Hs-578T. The series is described as follows: Antiproliferative activity against paclitaxel-resistant human Hs 578T cells 20B clone up to 1000 nM after 72 hrs by ATPlite assay. Type of series: functional, cell-based.
Series [5] relates to BT-549. Briefly: Antiproliferative activity against human BT549 cells up to 1000 nM after 72 hrs by ATPlite assay. It counts as functional, cell-based.
The subject of series [6] is MDA-MB-436. The series is described as follows: Antiproliferative activity against paclitaxel-resistant human MDA-MB-436 cells 20A clone up to 1000 nM after 72 hrs by ATPlite assay. It counts as functional, cell-based.
Series [7] has as its system Hs-578T. The series is described as follows: Antiproliferative activity against human Hs 578T cells up to 1000 nM after 72 hrs by ATPlite assay. Type of series: functional, cell-based.
The subject of series [8] is Hs-578T. Briefly: Antiproliferative activity against paclitaxel-resistant human Hs 578T cells 10C clone up to 1000 nM after 72 hrs by ATPlite assay. It counts as functional, cell-based.
The test system of a further series is Breast carcinoma cell. The series is described as follows: Antitumor activity against chemo-refractory disease patient-derived breast cancer cells xenografted in NOD/SCID mouse assessed as tumor growth inhibition at 20 mg/kg, iv administered weekly for 15 days. Type of series: functional, organism-based. The conditions noted are these: Homo sapiens. (Xenograft models place foreign cells or tissue in a host animal.)

In a further series the target is T1, Cytochrome P450 1A2 (Homo sapiens, UniProt P05177).
T1 sequence (P05177 whole entry): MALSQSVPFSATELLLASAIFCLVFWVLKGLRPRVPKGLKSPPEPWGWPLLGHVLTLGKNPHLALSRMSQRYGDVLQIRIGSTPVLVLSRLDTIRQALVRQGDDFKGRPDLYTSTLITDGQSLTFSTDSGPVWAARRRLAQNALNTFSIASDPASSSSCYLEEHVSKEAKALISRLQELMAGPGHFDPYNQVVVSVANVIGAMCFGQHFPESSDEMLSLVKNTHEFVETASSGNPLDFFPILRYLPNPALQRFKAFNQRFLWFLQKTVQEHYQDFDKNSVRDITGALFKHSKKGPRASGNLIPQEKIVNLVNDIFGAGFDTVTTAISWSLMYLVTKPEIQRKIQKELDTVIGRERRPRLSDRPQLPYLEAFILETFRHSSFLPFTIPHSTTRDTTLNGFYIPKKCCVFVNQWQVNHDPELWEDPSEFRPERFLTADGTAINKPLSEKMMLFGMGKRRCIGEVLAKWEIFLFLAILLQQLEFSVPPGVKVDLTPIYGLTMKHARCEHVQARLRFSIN
Briefly: Inhibition of CYP1A2 (unknown origin). Type of series: ADME.

The next series deals with Cytochrome P450 2C19 (Homo sapiens, UniProt P33261). Briefly: Inhibition of CYP2C19 (unknown origin). Type of series: ADME.
The nature of series [9]: Stability in human plasma assessed as parent compound remaining after 8 hrs relative to initial time. It counts as ADME, cell-free. The conditions noted are these: read-out: Stability.
The next series has as its system SNU-16. The series is described as follows: Antitumor activity against human SNU16 cells xenografted in nude BALB/c mouse assessed as tumor growth inhibition relative to control. Type of series: functional.
Series [10] is described as follows: Tmax in rat administered as single po dose by mass spectrometry. It counts as ADME, organism-based. The conditions noted are these: in vivo.
A short description of series [11]: Protein binding in plasma (unknown origin). The conditions noted are these: read-out: PPB (converted). Type of series: ADME, cell-free.
The target in the next series is Cytochrome P450 3A4 (Homo sapiens, UniProt P08684). The series is described as follows: Inhibition of CYP3A4 (unknown origin). It counts as ADME.
The nature of series [12]: Stability in human plasma assessed as parent compound remaining after 2 hrs relative to initial time. Type of series: ADME, cell-free. Conditions: read-out: Stability.
The nature of series [13]: Tmax in CD-1 mouse administered as single po dose by mass spectrometry. It counts as ADME, organism-based. Conditions: in vivo.
Series [14] is described as follows: Half life in human liver microsomes. It counts as ADME, microsome.
Series [15] in a line: Stability in human plasma assessed as parent compound remaining after 24 hrs relative to initial time. It counts as ADME, cell-free. The conditions noted are these: read-out: Stability.
The nature of series [16]: Drug recovery in plasma (unknown origin). It counts as ADME, cell-free.
Series [17] in a line: Unbound fraction in plasma (unknown origin). It counts as ADME, cell-free.
A short description of series [18]: Half life in dog liver microsomes. It counts as ADME, Canis lupus familiaris, microsome. In general terms: Microsomes from liver hold many membrane-bound enzymes, among them those of drug oxidation.
Another series has as its target Cytochrome P450 2D6 (Homo sapiens, UniProt P10635). Briefly: Inhibition of CYP2D6 (unknown origin). It counts as ADME.
The next series concerns the target Cytochrome P450 2C9 (Homo sapiens, UniProt P11712). The series is described as follows: Inhibition of CYP2C9 (unknown origin). Type of series: ADME.
Another series concerns A2780. Briefly: Antitumor activity against human A2780 cells xenografted in nude BALB/c mouse assessed as tumor growth inhibition at 20 mg/kg, po qd measured up to 12 days post dose. Type of series: functional, organism-based.
A short description of series [19]: Toxicity in mouse administered as single po dose. Type of series: organism-based. The conditions noted are these: in vivo.
A short description of series [20]: Stability in human plasma assessed as parent compound remaining after 75 mins relative to initial time. It counts as ADME, cell-free. Conditions: read-out: Stability.
Series [21] can be described thus: Stability in human plasma assessed as parent compound remaining after 4 hrs relative to initial time. It counts as ADME, cell-free. Conditions: read-out: Stability.
The nature of series [22]: Half life in mouse liver microsomes. Type of series: ADME, microsome.
For a further series, the system named is Mus musculus. Briefly: Toxicity in nude BALB/c mouse xenografted with human A2780 cells assessed as change in body weight at 20 mg/kg, po qd measured up to 12 days post dose. Type of series: organism-based. Conditions: in vivo, 288 h.
Series [23] is described as follows: Half life in rat liver microsomes. It counts as ADME, microsome.
Series [24] is described as follows: Toxicity in mouse. The conditions noted are these: in vivo. Type of series: organism-based.

Chain of Cytochrome P450 2C19 (P33261 whole entry): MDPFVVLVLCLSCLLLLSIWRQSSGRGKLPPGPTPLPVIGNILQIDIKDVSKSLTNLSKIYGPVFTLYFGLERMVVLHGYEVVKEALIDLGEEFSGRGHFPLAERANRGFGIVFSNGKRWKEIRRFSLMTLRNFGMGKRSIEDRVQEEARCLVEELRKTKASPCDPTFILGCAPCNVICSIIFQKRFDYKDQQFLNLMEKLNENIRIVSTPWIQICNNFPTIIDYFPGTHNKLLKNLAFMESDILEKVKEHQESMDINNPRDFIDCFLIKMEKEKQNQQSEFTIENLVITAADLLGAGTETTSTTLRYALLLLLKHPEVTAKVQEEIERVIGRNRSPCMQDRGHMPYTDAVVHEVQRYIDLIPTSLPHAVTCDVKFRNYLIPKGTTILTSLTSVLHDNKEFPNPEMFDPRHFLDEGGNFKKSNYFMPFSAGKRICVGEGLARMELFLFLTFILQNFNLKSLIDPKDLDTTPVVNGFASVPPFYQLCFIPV
Chain of Cytochrome P450 2C9 (P11712 whole entry): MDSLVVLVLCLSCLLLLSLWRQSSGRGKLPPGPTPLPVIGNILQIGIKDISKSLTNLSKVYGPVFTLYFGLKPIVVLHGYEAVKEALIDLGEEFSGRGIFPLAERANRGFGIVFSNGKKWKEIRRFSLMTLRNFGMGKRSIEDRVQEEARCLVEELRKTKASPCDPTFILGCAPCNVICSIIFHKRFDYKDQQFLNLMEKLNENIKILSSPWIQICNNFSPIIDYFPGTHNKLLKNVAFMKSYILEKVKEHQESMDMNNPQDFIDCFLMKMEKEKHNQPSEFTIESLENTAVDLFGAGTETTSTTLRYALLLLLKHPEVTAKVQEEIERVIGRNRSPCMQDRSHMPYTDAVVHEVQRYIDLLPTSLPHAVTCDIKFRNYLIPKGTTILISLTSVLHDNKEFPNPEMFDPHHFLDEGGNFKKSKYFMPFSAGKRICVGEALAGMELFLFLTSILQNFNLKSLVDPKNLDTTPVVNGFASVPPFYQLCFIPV
Chain of Cytochrome P450 2D6 (P10635 whole entry): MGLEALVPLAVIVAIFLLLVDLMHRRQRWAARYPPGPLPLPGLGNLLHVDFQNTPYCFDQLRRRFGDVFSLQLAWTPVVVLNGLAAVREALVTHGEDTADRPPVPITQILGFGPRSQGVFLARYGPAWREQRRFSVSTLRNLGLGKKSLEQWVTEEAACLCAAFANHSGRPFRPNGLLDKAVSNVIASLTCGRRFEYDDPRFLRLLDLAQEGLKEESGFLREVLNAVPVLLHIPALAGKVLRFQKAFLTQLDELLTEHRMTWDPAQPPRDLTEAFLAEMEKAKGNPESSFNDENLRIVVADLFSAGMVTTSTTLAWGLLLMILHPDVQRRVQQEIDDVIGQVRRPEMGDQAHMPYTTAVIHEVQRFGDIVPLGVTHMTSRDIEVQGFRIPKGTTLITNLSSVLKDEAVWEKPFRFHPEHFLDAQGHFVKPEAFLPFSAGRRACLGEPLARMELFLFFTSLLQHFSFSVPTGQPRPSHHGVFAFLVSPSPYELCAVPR
Chain of Cytochrome P450 3A4 (P08684 whole entry): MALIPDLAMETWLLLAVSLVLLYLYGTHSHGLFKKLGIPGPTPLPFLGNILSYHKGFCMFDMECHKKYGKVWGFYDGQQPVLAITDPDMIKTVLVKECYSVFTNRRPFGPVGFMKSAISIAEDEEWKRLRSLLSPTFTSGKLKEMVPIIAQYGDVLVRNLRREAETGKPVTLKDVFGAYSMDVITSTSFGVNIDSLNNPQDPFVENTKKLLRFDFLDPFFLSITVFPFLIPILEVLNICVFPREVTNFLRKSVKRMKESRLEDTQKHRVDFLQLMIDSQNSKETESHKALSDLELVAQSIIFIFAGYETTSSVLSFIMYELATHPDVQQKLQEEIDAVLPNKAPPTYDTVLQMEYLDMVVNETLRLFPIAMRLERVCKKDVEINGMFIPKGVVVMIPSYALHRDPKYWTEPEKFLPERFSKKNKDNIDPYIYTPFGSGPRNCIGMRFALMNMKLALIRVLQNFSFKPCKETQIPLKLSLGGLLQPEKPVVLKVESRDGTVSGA

As for `CC(=O)O[C@H]1C(=O)[C@@]2(C)[C@H]([C@H](OC(=O)c3ccccc3)[C@]3(O)C[C@H](OC(=O)[C@H](O)[C@@H](NC(=O)c4ccccc4)c4ccccc4)C(C)=C1C3(C)C)[C@]1(OC(C)=O)CO[C@@H]1C[C@@H]2O`, the result with MDA-MB-436 [1], with BT-549 [5] and in the series on Hs-578T [7] was Active. Also, the result in the series with MDA-MB-436 [2], in the series with BT-549 [3], in the series with Hs-578T [4], in the series on MDA-MB-436 [6] and in the series on Hs-578T [8] was inactive. Moreover, the TGI result in the series on Breast carcinoma cell was “inactive”.
With `Cc1ncc(C(=O)Nc2ccc(-c3cccc(OC4CC4)c3)cn2)cn1`, the 50% inhibitory concentration (IC50) against Cytochrome P450 1A2, against Cytochrome P450 2C19, on Cytochrome P450 3A4, against Cytochrome P450 2D6 and against Cytochrome P450 2C9 was above 30 µM throughout. The remaining at 8 h in series [9] stood at 74.1%. In addition, in the series on SNU-16, the TGI worked out at 100%. For the same compound, the Tmax was 15 min in series [10] and at most 15 min in series [13]. Moreover, the fraction unbound in series [11] and in series [17] was 0.0061 each time. Besides, the remaining at 2 h in series [12] was 81.1%. For the same compound, the half-life in series [14] was found to be 144 min; in [18] it was 20.6 min; in series [22], 13.7 min; in series [23] it was 10.9 min. Moreover, in [15], the remaining at 24 h came to 89.7%. In [16], this compound gave a Drug recovery of 79.64%. In the series on A2780, the TGI result is “Active”. The MTD in [19] is at most 20 mg/kg; in series [24], at most 6 mg/kg. The remaining at 1.25 h in [20] worked out at 89.4%. Besides, in series [21], the remaining at 4 h was 91.5%. In the series on Mus musculus, the Activity result is given as “Non-Toxic”.

One may read the IC50 as the concentration needed to halve the response being measured. A high value points to weaker potency. Broadly, the Tmax is the time at which the peak concentration occurs. The term half-life denotes the time in which the quantity being followed falls by half. A lower half-life goes with fast loss.
